In patent US20220362299A1, “ENGINEERED NATURAL KILLER CELLS AND METHODS FOR USING THE SAME IN IMMUNOTHERAPY AND AUTOPHAGY INHIBITON TECHNIQUES” (Purdue Research Foundation, priority 2019, published 2022):

Tested on: GBM43 cells
Test: Subcutaneous GBM43 xenograft model
Assay type: in vivo, NSG mice
Procedure: Subcutaneous GBM xenografts were established by inoculating NSG mice with 3×10^6 GBM43 cells in the right flank. Ten days later, when tumors reached a volume of about 80 mm^3, mice were randomly assigned to 5 groups (n=4/group) and treated according to one of the following protocols: (1) PBS only; (2) intravenous (IV) injection of 5×10^6 pNK cells alone; (3) intravenous (IV) injection of 5×10^6 CD73.mCAR-pNK cells alone (Construct 1); (4) intraperitoneal (IP) injection of CQ (50 mg/kg) alone. NK cells were administered once a week for three weeks. The mice receiving adoptive NK cells therapy (groups 2 and 3) also received IL-15 (0.5 μg/mice) by IP injection every 3-4 days. Tumor growth was followed by caliper measurements and tumor volumes were calculated using the formula: V=0.52×L×W×H as described above. Body weights of the mice were recorded throughout the treatment. At the end of the therapy, the mice were sacrificed and tumors were harvested for histologic (IHC/IF) analyses.
Immunohistochemistry (IHC) and immunofluorescence (IF) staining were carried out at the Histology Research Laboratory at the Purdue University College of Veterinary Medicine (West Lafayette, Ind.). Briefly, the tumors were fixed in 10% neutral-buffered formalin, embedded in paraffin, and cut into 3-5 μm sections.
CCL5 and CXCL10 expression in the tumors were detected through the staining using human CCL5/RANTES antibody and CXCL10 antibody respectively. The staining was evaluated based on the intensity (weak=1, moderate=2, and high=3) of chemokine immunostaining and the density (0%=0, 1-40%=1, 41-75%=2, >76%=3) of positive tumor cells. The final score of each sample was multiplied by the intensity and density.
For subcutaneous GBM43 xenografts, NK cell infiltration was investigated by IF staining performed with the following stains: Protein L (Alexa 647, far red), NKp46 (Alexa 488, green) and DAPI nuclear counterstain. CCL5 and CXCL10 expression were evaluated by IHC staining as described above. CD73 expression in the tumors was detected through the staining using human CD73 antibody.
The treatment schedule is summarized in FIG. 17, subpart A. Briefly, 3×10^6 GBM43 cells were subcutaneously (SC) implanted into the right flank of the mice (Day 0). 10 days later (Day 10), mice in the CQ group were intraperitoneally (IP) injected with CQ at 50 mg/kg for 3 weeks, once a week. One day later (Day 11), the mice in pNK and CD73.mCAR-pNK groups were treated with 5×10^6 adoptively-transferred pNK or CD73.mCAR-pNK cells intravenously (IV), once a week for 3 weeks. Starting on the day of the first injection of NK cells, all mice received 0.5 μg of IL-15 once every 3-4 days IP.

Substance: Chloroquine diphosphate salt [CQ]
- mean tumor volume (NK cells 5×10^6 IV once a week for 3 weeks, CQ 50 mg/kg IP, PBS group 1475): 953.25 mm^3
- CCL5 in tumor tissues (IHC) (mouse, in vivo): significantly higher presence
- CXCL10 in tumor tissues (IHC) (mouse, in vivo): significantly higher presence
- mean tumor weight (necropsy day 28 post-start of treatment, PBS group 2.31): 1.16 g
- expression of CD73 on tumors (IHC) (vs other treatment groups): lower level
